What was measured:
[1] = Cytotoxicity assay (MTT), J774A.1 cell line; assay type: cell-based; settings: mouse
Procedure: (§1) Adherent BALB/c mouse macrophage cell line J774A.1 (ATCC® TIB 67™) and suspension human acute monocytic leukemic cell line THP-1 (ATCC® TIB-202™) were purchased from DSMZ, Germany were cultured and maintained in DMEM medium (Gibco) and RPMI 1640 (Sigma), respectively, supplemented with 10% FBS, 1% penicillin-streptomycin (Sigma) and L-glutamine 200 mM (Sigma), at 37 °C, 5% CO2.
(§2) Cell lines J774A.1 and THP-1 were used to estimate CC50 of the peroxides. Cells were plated in 96-well flat bottom culture plates (VWR) at 5 × 10^5 cells/mL. The monocytic cell line THP-1 was differentiated in RPMI medium with phorbol myristate acetate (PMA) (25 ng/mL; Sigma) for 24 h, followed by a washing step with RPMI medium. Six serial concentrations of the compounds (Table 3) were added in four replicates and the plates were incubated at 37 °C ± 1 °C, 5% CO2 for 48 h. An untreated control (cells in DMEM or RPMI medium plus 0.5% DMSO as vehicle) and blank (medium alone) were plated out in quadruplicate. After the incubation period, 20 µL/well of MTT [3-(4,5-dimethylthiazol-2-yl)-2,5-diphenyltetrazolium bromide] was added to a final concentration of 5 µg/mL in 1× phosphate-buffered saline (PBS, Merck), with an additional 4 h incubation at 36 °C, as previously described. The formazan salts were resuspended in 2-propanol (Merck) and the cell viability was determined by measuring absorbance with a Synergy ™HTX Multi Mode Microplate Reader at 595 nm (Dynex Technologies). The CC50 values were calculated fitting the data as a non-linear regression with variable slope using a dose-response inhibitory model, in the GraphPad Prism V 8.0 program. Each compound was tested in three independent assays.

[2] = Cytotoxicity assay (MTT), PMA-differentiated THP-1 cell line; assay type: cell-based; settings: human
Procedure: as §1, §2

[3] = test system: L. infantum IMT151 intracellular amastigotes; assay: Intracellular amastigotes assay in J774A.1 macrophages, L. infantum; assay type: cell-based; settings: Leishmania infantum, J774.A1; 48 h incubation, J774A.1 host cells; read-out: IC50 ± SD, L. infantum intracellular amastigotes
Procedure: (§3) The intracellular assay using the macrophage J774A.1 cell line was performed with the compounds that presented best SI on the promastigote’s susceptibility assay. J774A.1 cells were adjusted to 2.5 × 10^5 cells/mL in supplemented DMEM medium. 200 μL/well of the cell suspension was placed in 16 well Lab Tek culture glass slides (Nunc), and incubated at 37 °C ± 1 °C, 5% CO2, for 3 h, to enable the cells to adhere to the slides. After a washing step with DMEM to discard non-attached cells, the cells were infected with 2.5 × 10^6 cells/mL promastigotes in a 10:1 parasite-host cell proportion for 24 h. Compounds and control drugs were added in two replicates of six serial concentrations (Table 3). As negative control, macrophages were cultivated in medium and DMSO, as vehicle solution (0.5% v/v). Slides were incubated for 48 h at the same temperature. After a washing step with 1× PBS (Sigma), slides were fixed and stained, and the infection index was calculated according to [34] by counting the number of intracellular amastigotes per 100 macrophages, in treated and untreated cells. Two independent experiments were performed to determine the amastigotes IC50 of each compound, which was calculated by fitting the data as a non-linear regression with variable slope using a dose-response inhibitory model, in the GraphPad Prism V 8.0 program. SI was determined as described above.

[4] = test system: L. donovani BD14 intracellular amastigotes; assay: Intracellular amastigotes assay in J774A.1 macrophages, L. donovani; assay type: cell-based; settings: Leishmania donovani, J774.A1; 48 h incubation, J774A.1 host cells; read-out: IC50 ± SD, L. donovani intracellular amastigotes
Procedure: as §3

[5] = test system: L. infantum promastigotes; assay: Flow cytometry detection of phosphatidylserine externalization (Annexin V/PI); assay type: cell-based, Leishmania infantum; settings: 2 × IC50, 48 h, mean ± SEM
Procedure: The L. infantum strain (MHOM/PT/1988/IMT151) was chosen for the cytometry analysis and promastigotes at a concentration of 1 × 10^7 parasites/mL were tested against the three compounds evaluated in the intracellular amastigotes assay (LC132, LC137 and LC138). Flow cytometry analysis were performed in a CytoFlex flow cytometer (Beckman Coulter), at an excitation wavelength of 488 nm (blue laser). Data acquisition were collected and registered using channels FL1 (flurescein isothiocyanate, FITC) with a BP filter (525 ± 40 nm) for Fluorescein and FL2 (IP) with a BP filter (570 ± 20 nm) for propidium iodide (PI) and 10,000 total events per sample were analysed using CytExpert v2.0.0.153 software. Samples were analysed in triplicates and two to three independent experiments were performed. Values are expressed as a percentage of cells for a given marker, relatively to the number of cells analysed ± standard error of mean (SEM).
To distinguish apoptotic cell death from necrotic cell death, cells were counterstained with PI, a non-permeable stain with affinity for nucleic acids, as it selectively enters necrotic cells. […] After adding 400 μL of 1 × Binding Buffer, samples were analysed in Cytoflex flow cytometer. Annexin V-FITC and PI were measured in FL1 and FL2 channels, respectively. […]

Row | SMILES | CC50 at 48 h [1] [µM] | CC50 at 48 h [2] [µM] | IC50 [3] [µM] | IC50 [4] [µM] | late apoptosis (Annexin+/PI+) cell population [5] [%] | CC50 at 48 h ([1]; J774A.1 macrophage cells, 48 h incubation, MTT, read-out: CC50 ± SD, J774A.1 Cell Line) [µM] | CC50 at 48 h ([2]; PMA-differentiated THP-1 cells, 48 h incubation, MTT, read-out: CC50 ± SD, THP-1 Cell Line) [µM]
1 | C[C@@H]1[C@H](O)[C@@H](C)/C=C/C=C/C=C/C=C/C=C/C=C/C=C/[C@H](O[C@@H]2O[C@H](C)[C@@H](O)[C@H](N)[C@@H]2O)C[C@@H]2O[C@](O)(C[C@@H](O)C[C@@H](O)[C@H](O)CC[C@@H](O)C[C@@H](O)CC(=O)O[C@H]1C)C[C@H](O)[C@H]2C(=O)O [AmB, amphotericin B, reference compound] | 71.9 ± 5.4 | 23.2 ± 3 | 0.3 ± 0.1 | 0.1 | 17.5 ± 0.9 |  | 
2 | CCOC(=O)C1CCC2(CC1)OOC1(OO2)C2CC3CC(C2)CC1C3 (stereo not shown) [LC138] |  |  | 23.9 ± 2.7 | 426 ± 25.5 | 20.5 ± 4.2 | 528 ± 54 | 2839 ± 15
